Measurements taken from US8021846B2, “Method for determining azole resistance in Candida glabrata” (Medical Diagnostic Laboratories, LLC, priority 2008, dated 2011).
≈ marks a conversion by molar mass, not a printed value.

System: Candida glabrata clinical isolates
Test: Microbroth dilution assay (CLSI M27-A2) of azole susceptibility of clinical isolates;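 also: growth of C. glabrata cervicovaginal isolates in 96-well plates, absorbance at 620 nm minus medium background, 35 °C for 24 and 48 h, DMSO ≦0.5%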
Details: for % of isolates S (susceptible) / No. of isolates S (susceptible): 175 C. glabrata cervicovaginal clinical isolates, S = MIC ≦8 μg/ml fluconazole, ≦1 μg/ml voriconazole, proposed breakpoints for voriconazole and miconazole; for MIC: Nakaseomyces glabratus
From the text: One hundred seventy-five (175) Candida glabrata clinical isolates were retrieved from cervicovaginal swabs. Clinical isolates were obtained from cervicovaginal swabs of female patients suspected of having vulvovaginal candidiasis (WC) from across the United States. Candida glabrata PCR positive swabs were struck out on Candida CHROMagar, and individual Candida glabrata colonies were isolated for susceptibility testing using the microbroth dilution assay according to the Clinical and Laboratory Standards Institute protocol. Susceptibilities of these isolates to triazole anti-fungal drugs (e.g., fluconazole, voriconazole, and miconazole) were determined.
The microbroth dilution assays were performed using RPMI 1640 (minus glutamine, and 0.165 M MOPS to pH 7.0) (Sigma, St. Louis, Mo.). […] Drugs were obtained from the following sources: fluconazole (LKT Laboratories, St. Paul, Minn.), miconazole (MP Biomedicals, Inc., Solon, Ohio) and voriconazole (Pfizer, New York, N.Y.). All drugs were dissolved in dimethyl sulfoxide (DMSO) to a final concentration of ≦0.5% in all experiments at which C. glabrata growth was not affected.
Protocols for microbroth dilution assays (i.e., susceptibility testing) was performed by MBD according to the Clincial and Laboratory Standards Institute (CLSI) guidelines outlined in M27-A2. Azole antifungals and concentrations tested were fluconazole (2 to 128 μg/ml), voriconazole (8 to 0.125 μg/ml), and miconazole (8 to 0.125 μg/ml). Candida glabrata isolates were growth in RPMI 1640 media (minus glutamine, plus 2% glucose, and 0.165M MOPS to pH 7.0) to mid-log phase and cultures were diluted to 5×10^3 cells/ml in RPMI 1640 medium. Aliquots of 100 μl were distributed to wells of a 96-well flat-bottom plate, except for row A which received 200 μl. Drug was added to row A at the desired concentration (fluconazole, 128 μg/ml, voriconazole 8 μg/ml, and miconazole 8 μg/ml) and then serially two-fold diluted to rows B through G; row H served as a drug-free control. Plates were incubated at 35° C. for 24 and 48 hours. Absorbance at 620 nm was read with a microplate reader (Beckman Coulter, Inc., Fullerton, Calif.); background due to medium was subtracted from all readings.
The MIC was defined as the lowest concentration inhibiting growth at least 80% relative to the drug-free control.

SMILES: Clc1ccc(COC(Cn2ccnc2)c2ccc(Cl)cc2Cl)c(Cl)c1 (stereo not shown) [Miconazole, miconazole]
- % of isolates S (susceptible): 100.0%
- No. of isolates S (susceptible): 175
- Susceptibility of the clinical isolates (in words) (175 C. glabrata clinical isolates): All of the clinical isolates were susceptible

SMILES: OC(Cn1cncn1)(Cn1cncn1)c1ccc(F)cc1F [Fluconazole, fluconazole]
- % of isolates S (susceptible): 30.9%
- No. of isolates S (susceptible): 54
- MIC (isolates of swab S1 (susceptible group)): 8 µg/mL (≈ 26.1 µM)
- MIC (isolates of swab S2 (susceptible group)): 4 µg/mL (≈ 13.1 µM)
- MIC (isolates of swab S3 (susceptible group)): 4 µg/mL (≈ 13.1 µM)
- MIC (isolates of swab S4 (susceptible group)): 2 µg/mL (≈ 6.53 µM)
- MIC (isolates of swab S5 (susceptible group)): 4 µg/mL (≈ 13.1 µM)
- MIC (isolates of swab S6 (susceptible group)): 4 µg/mL (≈ 13.1 µM)
- MIC (isolates of swab S7 (susceptible group)): 4 µg/mL (≈ 13.1 µM)
- MIC (isolates of swab S8 (susceptible group)): 4 µg/mL (≈ 13.1 µM)
- MIC (isolates of swab S9 (susceptible group)): 2 µg/mL (≈ 6.53 µM)
- MIC (isolates of swab S11 (S-DD group)): 16 µg/mL (≈ 52.2 µM)
- MIC (isolates of swab S12 (S-DD group)): 16 µg/mL (≈ 52.2 µM)
- MIC (isolates of swab S13 (S-DD group)): 16 µg/mL (≈ 52.2 µM)
- MIC (isolates of swab S14 (S-DD group)): 16 µg/mL (≈ 52.2 µM)
- MIC (isolates of swab S15 (S-DD group)): 32 µg/mL (≈ 104 µM)
- MIC (isolates of swab S16 (S-DD group)): 16 µg/mL (≈ 52.2 µM)
- MIC (isolates of swab S17 (S-DD group)): 16 µg/mL (≈ 52.2 µM)
- MIC (isolates of swab S18 (S-DD group)): 16 µg/mL (≈ 52.2 µM)
- MIC (isolates of swab S19 (S-DD group)): 32 µg/mL (≈ 104 µM)
- MIC (isolates of swab S20 (S-DD group)): 32 µg/mL (≈ 104 µM)
- MIC (isolates of swab S21 (resistant group)): 128 µg/mL (≈ 418 µM)
- MIC (isolates of swab S22 (resistant group)): 128 µg/mL (≈ 418 µM)
- MIC (isolates of swab S23 (resistant group)): 128 µg/mL (≈ 418 µM)
- MIC (isolates of swab S24 (resistant group)): 128 µg/mL (≈ 418 µM)
- MIC (isolates of swab S25 (resistant group)): 64 µg/mL (≈ 209 µM)
- MIC (isolates of swab S26 (resistant group)): 128 µg/mL (≈ 418 µM)
- MIC (isolates of swab S27 (resistant group)): 64 µg/mL (≈ 209 µM)
- MIC (isolates of swab S28 (resistant group)): 128 µg/mL (≈ 418 µM)
- MIC (isolates of swab S29 (resistant group)): 64 µg/mL (≈ 209 µM)
- MIC (swab S10, the single resistant isolate): 128 µg/mL (≈ 418 µM)
- MIC (swab S10, the two susceptible isolates): 8 µg/mL (≈ 26.1 µM)

SMILES: C[C@@H](c1ncncc1F)[C@](O)(Cn1cncn1)c1ccc(F)cc1F [Voriconazole, voriconazole]
- % of isolates S (susceptible): 62.3%
- No. of isolates S (susceptible): 109
